Reference: US8906967B2 (priority 2007, dated 2014)
Where two headings read alike, the source gives them in different places.

System: Clostridium perfringens ATCC 13124
Type: cell-based
Details: 37° C., culture broth

Row | Compound | growth of Clostridium perfringens (1.2 ppm sesquiterpene) | growth of Clostridium perfringens (2 ppm sesquiterpene) | growth of Clostridium perfringens (100 ppm sesquiterpene) | growth of Clostridium perfringens (10 ppm sesquiterpene) | other results
1 | CC1=C2CC[C@@H](C)[C@H]2[C@H]2[C@@H](CC1)C2(C)C [(+) ledene] | − | − | − |  | 
2 | C[C@@H]1CC[C@@H]2[C@@H]1[C@H]1[C@@H](CC[C@]2(C)O)C1(C)C [(−) epiglobulol] |  | + | − | − | growth of Clostridium perfringens (0.5 ppm sesquiterpene): +
3 | C[C@@H]1CC[C@@H]2[C@H](C3=C1CC[C@H]3C)C2(C)C [(−) iso-ledene] |  |  | − |  | growth of Clostridium perfringens (0.5 ppm sesquiterpene): +
4 | C=C1CC[C@@H]2[C@H]([C@@H]3[C@H](C)CC[C@@H]13)C2(C)C [Aromadendrene] |  |  | − |  | growth of Clostridium perfringens (0.5 ppm sesquiterpene): +
5 | C[C@@H]1CC[C@H]2C(C)(C)[C@H]3C[C@@]12CC[C@@]3(C)O [Cedrol] |  | + |  | − | 
6 | CC(C)=CCCC(C)=CCCC(C)=CC=O [Farnesal] |  | + |  |  | 
7 | CC(C)=C1C/C=C(\C)CC/C=C(\C)CC1=O [Germacrone] |  |  | − |  | growth of Clostridium perfringens (0.5 ppm sesquiterpene): +; growth of Clostridium perfringens (6 ppm sesquiterpene): +; growth of Clostridium perfringens (30 ppm sesquiterpene): −
8 | C=C1[C@H]2CC[C@@H]3[C@H]2C(C)(C)CCC[C@]13C [Longifolene] | − | − |  | − | growth of Clostridium perfringens (0.3 ppm sesquiterpene): +
9 | C=CC(C)(O)CCC=C(C)CCC=C(C)C (centres unmarked) [Nerolidol] |  | + |  | − | 
10 | C=C1CC[C@@H]2[C@H]([C@@H]3[C@H](C)CC[C@H]13)C2(C)C [allo-aromadendrene] |  | − | − |  | 
11 | CC(=O)O[C@]1(C)CC[C@@]23C[C@@H]1C(C)(C)[C@@H]2CC[C@H]3C [cedryl acetate] |  | − |  | − | 
12 | CC(=O)OCC=C(C)CCC=C(C)CCC=C(C)C [farnesyl acetate] |  | − |  | − | 
13 | CC(=O)CCC=C(C)CCC=C(C)CCC=C(C)C [farnesyl acetone] |  | − |  | − | 
14 | CC(C)=CCC/C(C)=C/CC/C(C)=C/CO [trans-trans farnesol] |  | + |  | − | 
15 | CC1=CC[C@@]23C[C@@H]1C(C)(C)[C@@H]2CC[C@H]3C [α-cedrene] | − | − |  | − | 
16 | CC1=CC[C@H]2[C@H]3[C@@H]1[C@]2(C)CC[C@H]3C(C)C [α-copaene] | − |  | − |  | growth of Clostridium perfringens (0.5 ppm sesquiterpene): +
17 | CC1=CC[C@@]23[C@@H]([C@@H]12)[C@H](C(C)C)CC[C@H]3C [α-cubebene] | − |  | − |  | 
18 | C/C1=C\CC/C(C)=C/CC(C)(C)/C=C/C1 [α-humulene (α-caryophyllene)] | − | − |  | − | growth of Clostridium perfringens (0.3 ppm sesquiterpene): +; growth of Clostridium perfringens (0.4 ppm sesquiterpene): +
19 | C=C1CC/C=C(\C)CC[C@@H]2[C@@H]1CC2(C)C [β-caryophyllene] |  | − | − |  | growth of Clostridium perfringens (0.2 ppm sesquiterpene): +; growth of Clostridium perfringens (1 ppm sesquiterpene): −
20 | C=C1CC[C@@]23C[C@@H]1C(C)(C)[C@@H]2CC[C@H]3C [β-cedrene] | − | − |  | − | 
21 | C=C1C/C=C/C(C)(C)C/C=C(\C)CCC1 [β-humulene] | − |  |  |  | growth of Clostridium perfringens (0.4 ppm sesquiterpene): +
22 | C=C1C=CC(C)(C)CCCC(C)=CCC1 [γ-humulene] |  |  |  |  | growth of Clostridium perfringens (0.4 ppm sesquiterpene): +
23 | (−) globulol |  | + | − | − | growth of Clostridium perfringens (0.5 ppm sesquiterpene): +
24 | bisabolene/farnesene | − | − |  | − | growth of Clostridium perfringens (0.3 ppm sesquiterpene): +
25 | cedrene-9-ol |  | + |  | + | 
26 | α-bisabolol |  | + |  |  | 
